Measured values reported in patent publication US20240269304A1, “BCL-XL INHIBITOR ANTIBODY-DRUG CONJUGATES AND METHODS OF USE THEREOF” (Novartis AG, priority 2020, published 2024).
Where two headings read alike, the source gives them in different places.

How the values were obtained:
[1] = system: MM1S (MM); assay: CellTiter-Glo viability 72 h, single agent or 1/1 combination, MM1S (Example 9); assay type: cell-based; conditions: Homo sapiens, MM1.S, single agent or 1/1 combination as labelled
Experimental: (§1) Cell lines were cultured in the media described above at 37° C. in a humidified atmosphere containing 5% CO2. Cells were seeded in 96 well clear bottom plates (96 well clear-bottom, white, Corning reference 3903) and exposed to the payloads or ADCs at single agents or in 1/1 combinations with vincristine, ABT-199 or compound A2 for 72 h (serially diluted; 9 concentrations each, triplicates). Effects of payloads or ADCs on cell viability were assessed after 3 days of incubation at 37° C./5% CO2 by quantification of cellular ATP levels using CellTiter-Glo reagent (Promega Ref: G7571) at 75 μL reagent/well. All the conditions were tested in triplicates. Luminescence was quantified on a multipurpose plate reader. IC50s were calculated using standard four-parametric curve fitting. […] Each experiment was performed at least twice, with results being reproducible.

[2] = system: ALL-SILL (T-ALL); assay: CellTiter-Glo viability 72 h, single agent or 1/1 combination, ALL-SIL (Example 9); assay type: cell-based; conditions: single agent or 1/1 combination as labelled
Experimental: Cell lines were cultured in the media described above at 37° C. in a humidified atmosphere containing 5% CO2. […] Effects of payloads or ADCs on cell viability were assessed after 3 days of incubation at 37° C./5% CO2 by quantification of cellular ATP levels using CellTiter-Glo reagent (Promega Ref: G7571) at 75 μL reagent/well. All the conditions were tested in triplicates. Luminescence was quantified on a multipurpose plate reader. IC50s were calculated using standard four-parametric curve fitting.

[3] = system: H1650 cells; assay: CellTiterGlo (CTG) cell viability, 3D, 120 h, H1650 (Example 8); assay type: cell-based, human; conditions: Homo sapiens, NCI-H1650, H1650 3D
[4] = system: LOUCY (T-ALL); assay: CellTiter-Glo viability 72 h, single agent or 1/1 combination, LOUCY (Example 9); assay type: cell-based; conditions: single agent or 1/1 combination as labelled
Experimental: as §1

[5] = system: ncih524; assay: In vitro ADC activity with combination partners, CellTiter-Glo 5 days, ncih524 (Example 13); assay type: cell-based; conditions: single agent
Experimental: (§2) Antibody drug conjugates (ADCs) targeting IgG, B7H3, CD56, DLK1, DLL3, EpCAM, and SEZ6 were tested against cancer cell lines obtained from ATCC (American Type Culture Collection) or from other commercial cell line vendors (cor1279, ncih1436, ncih146, ncih211, ncih524). The cells were cultured in media that is optimal for their growth at 5% CO2, 37° C. in a tissue culture incubator. Prior to seeding for the proliferation assay, the cells were split at least 2 days before the assay to ensure optimal growth density. On the day of seeding, cells were lifted off tissue culture flasks using 0.25% trypsin. Cell viability and cell density were determined using a cell counter (Vi-Cell XR Cell Viability Analyzer, Beckman Coulter). Cells with higher than 85% viability were seeded in white clear bottom 384-well plates (Greiner cat #781098) at a density of 1000 cells per well in 50 μL of standard growth media. Plates were incubated at 37° C. overnight in a tissue culture incubator.
(§3) The ADCs were prepared in standard phosphate buffered solution to desired concentrations. A series of 10 dilutions were made for each ADC. The prepared drug treatments were then added to the cells resulting in final concentrations of 300 nM to 0.015 nM. Combination partners (Venetoclax and Topotecan) were added at fixed concentrations. Acoustic transfer devices (Echo525, Echo550, Beckman Coulter) were used to add the ADCs or combination partners to the cells. Each treatment was tested in triplicate assay plates. Plates were incubated at 37° C. overnight or for 5 days in a tissue culture incubator. The ability of the ADCs to inhibit cell proliferation and survival was assessed using the Promega CellTiter-Glo® proliferation assay. Plates were incubated at room temperature for 20 minutes to stabilize luminescent signals prior to reading using a multimode plate reader (Pherastar, BMG). Luminescent counts of untreated cells were taken the day after seeding (Day 0 readings), and after 5 days of treatment (Day 5 readings). The Day 5 readings of the untreated cells were compared to the Day 0 readings. Assays with at least one cell doubling during the incubation period were considered valid. To evaluate the effect of the drug treatments, luminescent counts from wells containing untreated cells (100% viability) were used to normalize treated samples. The concentrations of treatment required to inhibit 50% of cell growth or survival ([…]) were calculated using a four parameter logistic regression equation.

[6] = system: ncih211; assay: In vitro ADC activity with combination partners, CellTiter-Glo 5 days, ncih211 (Example 13); assay type: cell-based; conditions: single agent
Experimental: as §2, §3

[7] = system: SUDHL8 (DLBCL); assay: CellTiter-Glo viability 72 h, single agent or 1/1 combination, SUDHL8 (Example 9); assay type: cell-based; conditions: Homo sapiens, SU-DHL-8, single agent or 1/1 combination as labelled
Experimental: as §1

Q: With `Cc1c(Nc2nc3ccccc3s2)nnc2c1CCCN2c1ccc(-c2cnn(C[C@]34C[C@]5(C)C[C@](C)(C3)C[C@@](OCCN3CCCC3)(C5)C4)c2C)c(C(=O)O)n1` [P21, 6-[3-(1,3-benzothiazol-2-ylamino)-4-methyl-6,7-dihydro-5H-pyrido[2,3-c]pyridazin-8-yl]-3-[1-[[3,5-dimethyl-7-(2-pyrrolidin-1-ylethoxy)-1-adamantyl]methyl]-5-methyl-pyrazol-4-yl]pyridine-2-carboxylic acid] as the molecule, how does the IC50 ([1]; mean, read-out: MM1S (MM) IC50 mean) read?
A: 17.4 nM

Q: And the IC50 ([1]; n1, read-out: MM1S (MM) IC50 n1)?
A: 10.4 nM

Q: What about the IC50 ([1]; n2, read-out: MM1S (MM) IC50 n2) of the same molecule?
A: 24.3 nM

Q: And the IC50 ([2]; mean, read-out: ALL-SILL (T-ALL) IC50 mean)?
A: 0.63 nM

Q: And the IC50 ([2]; n1, read-out: ALL-SILL (T-ALL) IC50 n1)?
A: 0.4 nM

Q: And the IC50 ([2]; n2, read-out: ALL-SILL (T-ALL) IC50 n2)?
A: 0.86 nM

Q: What about the IC50 ([3]; experiment n1, read-out: H1650 3D CTG IC50 n1) of the same molecule?
A: 0.31 nM

Q: And the IC50 ([3]; experiment n2, read-out: H1650 3D CTG IC50 n2)?
A: 0.37 nM

Q: And the IC50 ([3]; mean of n1 and n2, read-out: H1650 3D CTG IC50 Mean of n1 and n2)?
A: 0.34 nM

Q: What about the IC50 ([4]; mean, read-out: LOUCY (T-ALL) IC50 mean) of the same molecule?
A: 0.73 nM

Q: What about the IC50 ([4]; n1, read-out: LOUCY (T-ALL) IC50 n1) of the same molecule?
A: 0.73 nM

Q: What about the GI50 ([5]; Homo sapiens, NCI-H524, 120 h) of the same molecule?
A: 0.000508 µM

Q: And the “GI Amax ncih524” value [5]?
A: −97.52

Q: What about the GI50 ([6]; Homo sapiens, NCI-H211, 120 h) of the same molecule?
A: 0.000508 µM

Q: And the “GI Amax ncih211” value [6]?
A: −97.26

Q: And the IC50 ([7]; mean, read-out: SUDHL8 (DLBCL) IC50 mean)?
A: 0.24 nM

Q: What about the IC50 ([7]; n1, read-out: SUDHL8 (DLBCL) IC50 n1) of the same molecule?
A: 0.34 nM

Q: What about the IC50 ([7]; n2, read-out: SUDHL8 (DLBCL) IC50 n2) of the same molecule?
A: 0.14 nM
